pIC50: −log10 of the molar value.
Columns and labels:
Format in all cases: cell-based
[1] = test system: Moraxella catarrhalis (BCA); test: MIC, two-fold agar dilution (CLSI), clinical isolates
Procedure, shortened: (§1)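 Following the American Clinical and Laboratory Standards Institute procedure, agar two-fold dilution served to determine minimum inhibitory concentrations.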

[2] = test system: methicillin-sensitive Staphylococcus epidermidis (MSSE); test: as above
Procedure, shortened: as §1

[3] = test system: methicillin-sensitive Staphylococcus aureus (MSSA); test: as above
Procedure, shortened: as §1

[4] = test system: methicillin-resistant Staphylococcus epidermidis (MRSE); test: as above
Procedure, shortened: as §1

[5] = test system: methicillin-resistant Staphylococcus aureus (MRSA); test: as above
Procedure, shortened: as §1

[6] = test system: Escherichia coli (including ESBLs, non-ESBLs); test: as above
Procedure, shortened: as §1

[7] = test system: Enterococcus faecium (EFM); test: as above
Procedure, shortened: as §1

[8] = test system: Streptococcus pneoumoniae (SPN); test: as above
Procedure, shortened: as §1

[9] = test system: Enterococcus faecalis (EFA); test: as above
Procedure, shortened: as §1

[10] = test system: MGC-803 gastric cancer cell line; test: CCK-8 proliferation inhibition
Procedure, shortened: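 Using media specific to each line (1640 for MGC-803 and Jurkat, F12 for PC3, DMEM high glucose for MCF-7, each with 10% newborn bovine serum), cells at 2000/well were treated for 72 h with serially formulated compounds, then assessed with CCK-8 diluted 1:10.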

[11] = test system: A549 lung cancer cell line; test: CCK-8 proliferation inhibition
Procedure, shortened: (§2)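 Plating at 2000 cells/well, then incubation overnight at 37° C. Next, a range of compound concentrations for 72 hours (control 1‰ DMSO). Finally, medium decanted and CCK-8 diluted 1:10 added.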

[12] = test system: BEL-7402 liver cancer cell line; test: CCK-8 proliferation inhibition
Procedure, shortened: as §2

[13] = test system: HCT-116 colorectal cancer cell line; test: CCK-8 proliferation inhibition; details: 72 hours, CCK-8
Procedure, shortened: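 Proliferation over 72 hours of compound treatment was measured with CCK-8 against a 1‰ DMSO control.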

[14] = concentration of 30 μM, 72 hours, 30 µM

O=C(C[C@@H](CC1CCCC1)C(=O)N1CC2(CC2)C[C@@H]1c1nc2ccccc2[nH]1)NO [Example 76, (R)-4-((R)-6-(1H-benzimidazol-2-yl)-5-azaspiro[2.4]heptane-5-yl)-3-(cyclopentylmethyl)-N-hydroxy-4-oxobutanamide]
Anti-bacterial activity (MIC) ([1]; strain BCA 14-1): 2 µg/mL | Anti-bacterial activity (MIC) ([1]; strain BCA 14-4): > 32 µg/mL | Anti-bacterial activity (MIC) ([1]; strain BCA 14-5): > 32 µg/mL | Anti-bacterial activity (MIC) ([1]; strain BCA 14-6): > 32 µg/mL | Anti-bacterial activity (MIC) ([1]; strain BCA 14-7): > 32 µg/mL | Anti-bacterial activity (MIC) ([1]; strain BCA 14-8): > 32 µg/mL | Anti-bacterial activity (MIC) ([1]; strain BCA 14-10): > 32 µg/mL | Anti-bacterial activity (MIC), strain MSSE 15-3 ([2]; clinical isolate MSSE 15-3): > 32 µg/mL | Anti-bacterial activity (MIC), strain MSSE 15-4 ([2]; clinical isolate MSSE 15-4): > 32 µg/mL | Anti-bacterial activity (MIC), strain MSSE 15-5 ([2]; clinical isolate MSSE 15-5): > 32 µg/mL | Anti-bacterial activity (MIC), strain MSSE 15-6 ([2]; clinical isolate MSSE 15-6): > 32 µg/mL | Anti-bacterial activity (MIC), strain MSSA 15-3 ([3]; clinical isolate MSSA 15-3): > 32 µg/mL | Anti-bacterial activity (MIC), strain MSSA 15-4 ([3]; clinical isolate MSSA 15-4): > 32 µg/mL | Anti-bacterial activity (MIC), strain MSSA 15-5 ([3]; clinical isolate MSSA 15-5): > 32 µg/mL | Anti-bacterial activity (MIC), strain MSSA 15-6 ([3]; clinical isolate MSSA 15-6): > 32 µg/mL | Anti-bacterial activity (MIC), strain MRSE 15-1 ([4]; clinical isolate MRSE 15-1): > 32 µg/mL | Anti-bacterial activity (MIC), strain MRSE 15-2 ([4]; clinical isolate MRSE 15-2): > 32 µg/mL | Anti-bacterial activity (MIC), strain MRSE 15-3 ([4]; clinical isolate MRSE 15-3): > 32 µg/mL | Anti-bacterial activity (MIC), strain MRSE 15-7 ([4]; clinical isolate MRSE 15-7): > 32 µg/mL | Anti-bacterial activity (MIC), strain MRSA 15-1 ([5]; clinical isolate MRSA 15-1): > 32 µg/mL | Anti-bacterial activity (MIC), strain MRSA 15-2 ([5]; clinical isolate MRSA 15-2): > 32 µg/mL | Anti-bacterial activity (MIC), strain MRSA 15-3 ([5]; clinical isolate MRSA 15-3): > 32 µg/mL | Anti-bacterial activity (MIC), strain MRSA 15-4 ([5]; clinical isolate MRSA 15-4): > 32 µg/mL | Anti-bacterial activity (MIC), strain ECO+ 15-1 ([6]; clinical isolate ECO+ 15-1): > 32 µg/mL | Anti-bacterial activity (MIC), strain ECO+ 15-2 ([6]; clinical isolate ECO+ 15-2): > 32 µg/mL | Anti-bacterial activity (MIC), strain ECO+ 15-3 ([6]; clinical isolate ECO+ 15-3): > 32 µg/mL | Anti-bacterial activity (MIC), strain ECO+ 15-4 ([6]; clinical isolate ECO+ 15-4): > 32 µg/mL | Anti-bacterial activity (MIC), strain ECO− 15-1 ([6]; clinical isolate ECO− 15-1): > 32 µg/mL | Anti-bacterial activity (MIC), strain ECO− 15-2 ([6]; clinical isolate ECO− 15-2): > 32 µg/mL | Anti-bacterial activity (MIC), strain ECO− 15-3 ([6]; clinical isolate ECO− 15-3): > 32 µg/mL | Anti-bacterial activity (MIC), strain ECO− 15-4 ([6]; clinical isolate ECO− 15-4): > 32 µg/mL | Anti-bacterial activity (MIC) ([7]; strain EFM 15-1): > 32 µg/mL | Anti-bacterial activity (MIC) ([7]; strain EFM 15-2): > 32 µg/mL | Anti-bacterial activity (MIC) ([7]; strain EFM 15-3): > 32 µg/mL | Anti-bacterial activity (MIC) ([7]; strain EFM 15-4): 16 µg/mL | Anti-bacterial activity (MIC) ([7]; strain EFM 15-5): 16 µg/mL | Anti-bacterial activity (MIC) ([7]; strain EFM 15-6): 32 µg/mL | Anti-bacterial activity (MIC) ([8]; strain SPN 16-2): 8 µg/mL | Anti-bacterial activity (MIC) ([8]; strain SPN 16-4): 4 µg/mL | Anti-bacterial activity (MIC) ([9]; strain EFA 15-1): > 32 µg/mL | Anti-bacterial activity (MIC) ([9]; strain EFA 15-2): > 32 µg/mL | Anti-bacterial activity (MIC) ([9]; strain EFA 15-3): > 32 µg/mL | Anti-bacterial activity (MIC) ([9]; strain EFA 15-4): > 32 µg/mL | Anti-bacterial activity (MIC) ([9]; strain EFA 15-5): > 32 µg/mL | Anti-bacterial activity (MIC) ([9]; strain EFA 15-6): > 32 µg/mL | Anti-bacterial activity (MIC) ([9]; strain EFA 15-9): > 32 µg/mL | inhibition at 30 µM ([10]; Homo sapiens, MGC-803, 72 h, concentration of 30 μM): > 50% | pIC50 ([10]; Homo sapiens, MGC-803, 72 hours): 4.78 | Inhibition of proliferation, Gastric cancer MGC-803 [10, 14]: 64% | pIC50 ([11]; Homo sapiens, A549, 72 hours): 5.03 | Inhibition of proliferation, Lung cancer A549 [11, 14]: 94% | inhibition at 30 µM ([12]; Homo sapiens, Bel-7402, 72 h, concentration of 30 μM): > 50% | pIC50 ([12]; Homo sapiens, Bel-7402, 72 hours): 5.07 | Inhibition of proliferation, Liver cancer BEL-7402 [12, 14]: 67% | pIC50 ([13]; Homo sapiens, HCT-116): 4.97 | HCT116 inhibition rate/% ([13]; concentration of 30 μM, 30 µM): 87%

From US10738028B2, “Spiro three-membered ring, spiro five-membered ring peptide deformylase inhibitor and use thereof in antibacteria and anti-tumor” (priority 2016, dated 2020)
